Reference: patent US12590099B2, “Inhibitors of histone deacetylase useful for the treatment or prevention of HIV infection” (Merck Sharp & Dohme LLC, priority 2018, dated 2026)
Read-outs that look alike come from different tables or passages of the source.

Test system: KARN cells (Jurkat 2C4)
Test: cells
Assay type: cell-based
Method in brief: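 Luminescence (Steady-Glo, 10 min, room temperature) measured next day in KARN Jurkat 2C4 cells given compounds at up to 40 μM final with 0.4% DMSO. Percent activation normalised to DMSO (0%) and 2 μM SAHA (100%), fitted by 4-parameter curve.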

[1] = read-out: Karn EC50 (nM) 0.1% NHS, 0.1% normal human serum
[2] = read-out: Karn EC50 (nM) 5% NHS, 5% normal human serum
[3] = Homo sapiens, Jurkat, read-out: Karn EC50 (nM) 0.1% NHS, 0.1% normal human serum
[4] = Homo sapiens, Jurkat, read-out: Karn EC50 (nM) 5% NHS, 5% normal human serum

CCC(=O)CCCCC[C@H](NC(=O)C1CC12CCN(C)C(C)(C)C2)c1ncc(-c2ccc3nc(C)ccc3c2)[nH]1 (single isomer, unassigned) [Compound 130] was tested, and the EC50 [1] was 503 nM and the EC50 [2] was 598 nM.

CCC(=O)CCCCC[C@H](NC(=O)C1CC12CCN(C)C(C)(C)C2)c1ncc(-c2ccc3nc(C)ccc3c2)[nH]1 (single isomer, unassigned) [Compound 131] showed an EC50 [1] of 126 nM and an EC50 [2] of 128 nM.

CCC(=O)CCCCC[C@H](NC(=O)C1CC12CCN(C)C(C)(C)C2)c1ncc(-c2ccc3nc(C)ccc3c2)[nH]1 (single isomer, unassigned) [Compound 132] showed an EC50 [1] of 169 nM and an EC50 [2] of 281 nM.

Work on CCC(=O)CCCCC[C@H](NC(=O)C1CC12CCN(C)C(C)(C)C2)c1ncc(-c2ccc3nc(C)ccc3c2)[nH]1 (single isomer, unassigned) [Compound 133] yielded an EC50 [1] of 89 nM and an EC50 [2] of 81 nM.

CCC(=O)CCCCC[C@H](NC(=O)[C@@]1(C)CC12CCN(C(C)C)CC2)c1ncc(-c2ccc3nc(C)ccc3c2)[nH]1 (single isomer, unassigned) [Compound 151, (1S or 1R)-1-methyl-6-(1-methylethyl)-N-{(1S)-1-[5-(2-methylquinolin-6-yl)-1H-imidazol-2-yl]-7-oxononyl}-6-azaspiro[2.5]octane-1-carboxamide] was tested, and the EC50 [3] was 583 nM and the EC50 [4] was 864 nM.

For CCC(=O)CCCCC[C@H](NC(=O)C1(C)CC12CCN(C(C)C)CC2)c1ncc(-c2ccc3nc(C)ccc3c2)[nH]1 (single isomer, unassigned) [Compound 152, (1S or 1R)-1-methyl-6-(1-methylethyl)-N-{(1S)-1-[5-(2-methylquinolin-6-yl)-1H-imidazol-2-yl]-7-oxononyl}-6-azaspiro[2.5]octane-1-carboxamide], the EC50 [3] was 128 nM and the EC50 [4] was 96 nM.

With CCC(=O)CCCCC[C@H](NC(=O)C1CC12CC1CCC(C2)N1C)c1ncc(-c2ccc3ncccc3c2)[nH]1 (single isomer, unassigned) [Compound 166] the EC50 [3] was 469 nM and the EC50 [4] was 591 nM.

CCC(=O)CCCCC[C@H](NC(=O)C1CN(C)C1)c1[nH]c(-c2ccc(F)cc2)nc1Br [Compound 65, N-{(1S)-1-[4-bromo-2-(4-fluorophenyl)-1H-imidazol-5-yl]-7-oxononyl}-1-methylazetidine-3-carboxamide] gave an EC50 [3] of 2190 nM and an EC50 [4] of 4390 nM.

With CCC(=O)CCCCC[C@H](NC(=O)[C@H]1CC12CCN(C)CC2)c1ncc(-c2ccc3nc(N(C)C)ccc3c2)[nH]1 [Compound 66, (1S)—N-[(1S)-1-{5-[2-(dimethylamino)quinolin-6-yl]-1H-imidazol-2-yl}-7-oxononyl]-6-methyl-6-azaspiro[2.5]octane-1-carboxamide] the EC50 [3] was 27 nM and the EC50 [4] was 14 nM.

CCC(=O)CCCCC[C@H](NC(=O)[C@H]1CC12CCN(C)CC2)c1ncc(-c2cnc3cccnc3c2)[nH]1 [Compound 67] was tested, and the EC50 [3] was 6480 nM and the EC50 [4] was 6350 nM.

CN1CCC2(CC1)C[C@@H]2C(=O)N[C@@H](CCCCCC(=O)CC(F)(F)F)c1ncc(-c2ccc(F)cc2)[nH]1 [Compound 68] was tested, and the EC50 [3] was greater than 40000 nM.

Work on CCC(=O)CCCCC[C@H](NC(=O)C1CN(C)C1)c1ncc(-c2ccc3c(c2)C2CCC3C2)[nH]1 (stereo partly drawn) [Compound 73, 1-methyl-N-{(1S)-7-oxo-1-[5-(1,2,3,4-tetrahydro-1,4-methanonaphthalen-6-yl)-1H-imidazol-2-yl]nonyl}azetidine-3-carboxamide] yielded an EC50 [3] of 740 nM and an EC50 [4] of 1450 nM.

For CCC(=O)CCCCC[C@H](NC(=O)[C@H]1CC12CCN(C)CC2)c1ncc(-c2ccc3c(c2)C2CCC3C2)[nH]1 (stereo partly drawn) [Compound 74], the EC50 [3] was 351 nM and the EC50 [4] was 376 nM.

Work on CCC(=O)CCCCC[C@H](NC(=O)[C@H]1CC12CCN(C)CC2)c1nc(F)c(-c2cc3ccccc3nc2OC)[nH]1 [Compound 75] yielded an EC50 [3] of 275 nM and an EC50 [4] of 801 nM.

Compound CCC(=O)CCCCC[C@H](NC(=O)[C@H]1CC12CCN(C)CC2)c1[nH]c(-c2ccc(F)cc2)nc1C#N [Compound 76] has an EC50 [3] of 233 nM and an EC50 [4] of 409 nM.

With CCC(=O)CCCCC[C@H](NC(=O)[C@H]1CC12CCN(C)CC2)c1ncc(-c2cc3ccccc3nc2OC)o1 [Compound 77] the EC50 [1] was 194 nM and the EC50 [2] was 311 nM.

CCC(=O)CCCCC[C@H](NC(=O)[C@H]1CC12CCN(CC)CC2)c1ncc(-c2ccc3nc(C4CC4)ccc3c2)[nH]1 [Compound 101] gave an EC50 [3] of 41 nM and an EC50 [4] of 36 nM.

Compound CCC(=O)CCCCC[C@H](NC(=O)[C@H]1CC12CCN(CC1CC1)CC2)c1ncc(-c2ccc3nc(C4CC4)ccc3c2)[nH]1 [Compound 104] has an EC50 [3] of 33 nM and an EC50 [4] of 28 nM.

Work on CCC(=O)CCCCC[C@H](NC(=O)C1=NOC2(CCN(C)CC2)C1)c1ncc(-c2cc3ccccc3nc2OC)[nH]1 [Compound 105] yielded an EC50 [3] of 126 nM and an EC50 [4] of 942 nM.

CCC(=O)CCCCC[C@H](NC(=O)C1=NOC2(CCN(C(C)C)CC2)C1)c1ncc(-c2cc3ccccc3nc2OC)[nH]1 [Compound 106, N-{(1S)-1-[5-(2-methoxyquinolin-3-yl)-1H-imidazol-2-yl]-7-oxononyl}-8-(1-methylethyl)-1-oxa-2,8-diazaspiro[4.5]dec-2-ene-3-carboxamide] was tested, and the EC50 [3] was 143 nM and the EC50 [4] was 1070 nM.

For CCC(=O)CCCCC[C@H](NC(=O)[C@H]1CC12CCN(C)CC2)c1ncc(-c2ccc3c(ccc(=O)n3C)c2)o1 [Compound 109], the EC50 [3] was 706 nM and the EC50 [4] was 579 nM.

In the case of CCC(=O)CCCCC[C@H](NC(=O)[C@H]1CC12CCN(C)CC2)c1ncc(-c2ccc3cnc(OC)cc3c2)[nH]1 [Compound 113], the EC50 [3] is reported as 58 nM and the EC50 [4] is reported as 107 nM.

Work on CCC(=O)CCCCC[C@H](NC(=O)[C@H]1CC12CCN(CC)CC2)c1ncc(-c2ccc3nc(C4CC4)ccc3c2)o1 [Compound 114] yielded an EC50 [3] of 207 nM and an EC50 [4] of 220 nM.

Work on CCC(=O)CCCCC[C@H](NC(=O)[C@H]1CC12CCN(CC1CC1)CC2)c1ncc(-c2ccc3nc(C4CC4)ccc3c2)o1 [Compound 115] yielded an EC50 [3] of 239 nM and an EC50 [4] of 209 nM.

For CCC(=O)CCCCC[C@H](NC(=O)[C@H]1CC12CCN(C(C)C)CC2)c1ncc(-c2ccc3nc(C4CC4)ccc3c2)o1 [Compound 116], the EC50 [3] was 630 nM and the EC50 [4] was 617 nM.

CCC(=O)CCCCC[C@H](NC(=O)[C@H]1CC12CCN(C)CC2)c1ncc(-c2ccc3nc(C4CC4)ccc3c2)o1 [Compound 121] gave an EC50 [3] of 232 nM and an EC50 [4] of 242 nM.

With CCC(=O)CCCCC[C@H](NC(=O)[C@H]1CC[C@]2(CC1)OC(=O)c1ncccc12)c1ncc(-c2ccc3nc(C4CC4)ccc3c2)o1 [Compound 122] the EC50 [3] was 1130 nM and the EC50 [4] was 2840 nM.

In the case of CCC(=O)CCCCC[C@H](NC(=O)[C@H]1CC[C@]2(CC1)OC(=O)c1cccnc12)c1ncc(-c2ccc3nc(C4CC4)ccc3c2)o1 [Compound 123], the EC50 [3] is reported as 868 nM and the EC50 [4] is reported as 3900 nM.

With CCC(=O)CCCCC[C@H](NC(=O)[C@H]1CC12CCN(C)CC2)c1ncc(-c2cc3ccccc3nc2OC)o1 [Compound 125] the EC50 [3] was 154 nM and the EC50 [4] was 256 nM.

Compound CCC(=O)CCCCC[C@H](NC(=O)[C@H]1CC12CCN(CC)CC2)c1ncc(-c2ccc3c(=O)n(C(C)C)ccc3c2)[nH]1 [Compound 126] has an EC50 [3] of 53 nM and an EC50 [4] of 33 nM.

With CCC(=O)CCCCC[C@H](NC(=O)[C@H]1CC12CCN(CC)CC2)c1ncc(-c2ccc(-c3cnc(C4CC4)cn3)cc2)o1 [Compound 129, (1S)—N-[(1S)-1-{5-[4-(5-cyclopropylpyrazin-2-yl)phenyl]-1,3-oxazol-2-yl}-7-oxononyl]-6-ethyl-6-azaspiro[2.5]octane-1-carboxamide] the EC50 [3] was 828 nM and the EC50 [4] was 1240 nM.

CC(O)C(=O)CCCCC[C@H](NC(=O)[C@H]1CC12CCN(C)CC2)c1nc(-c2ccc(F)cc2)c[nH]1 (stereo partly drawn) [Compound 134, (1S)—N-{(1S)-1-[4-(4-fluorophenyl)-1H-imidazol-2-yl]-8-hydroxy-7-oxononyl}-6-methyl-6-azaspiro[2.5]octane-1-carboxamide] showed an EC50 [3] of 2410 nM and an EC50 [4] of 2190 nM.

Work on CCC(=O)CCCCC[C@H](NC(=O)C1=NOC2(CCN(C)CC2)C1)c1ncc(-c2ccc3nc(C4CC4)ccc3c2)o1 [Compound 135] yielded an EC50 [3] of 1120 nM and an EC50 [4] of 1380 nM.

Work on CCC(=O)CCCCC[C@H](NC(=O)C1=NOC2(CCN(C(C)C)CC2)C1)c1ncc(-c2ccc3nc(C4CC4)ccc3c2)o1 [Compound 136] yielded an EC50 [3] of 2500 nM.

For CCC(=O)CCCCC[C@H](NC(=O)[C@H]1CC12CCN(C)CC2)c1ncc(-c2ccc3c(=O)n(C)ccc3c2)o1 [Compound 137], the EC50 [3] was 434 nM and the EC50 [4] was 443 nM.

For CCC(=O)CCCCC[C@H](NC(=O)[C@H]1CC12CCN(C)CC2)c1ncc(-c2ccc3oc(=O)ccc3c2)[nH]1 [Compound 138], the EC50 [3] was 210 nM and the EC50 [4] was 223 nM.

For CCC(=O)CCCCC[C@H](NC(=O)[C@H]1CC12CCN(C)CC2)c1ncc(-c2ccc(C3CC3)nc2)[nH]1 [Compound 139], the EC50 [3] was 532 nM and the EC50 [4] was 552 nM.

In the case of CCC(=O)CCCCC[C@H](NC(=O)[C@H]1CC12CCN(C)CC2)c1ncc(-c2ccc3ncc(Cl)cc3c2)[nH]1 [Compound 140], the EC50 [3] is reported as 113 nM and the EC50 [4] is reported as 155 nM.

CCC(=O)CCCCC[C@H](NC(=O)[C@H]1CC[C@]2(CC1)OC(=O)c1ncccc12)c1ncc(-c2cc3ccccc3nc2OC)[nH]1 [Compound 141] showed an EC50 [3] of 146 nM and an EC50 [4] of 1450 nM.

In the case of CCC(=O)CCCCC[C@H](NC(=O)[C@H]1CC12CCN(C)CC2)c1ncc(-c2ccc(-c3ccc(C4CC4)nc3)cc2)o1 [Compound 143], the EC50 [3] is reported as 1240 nM and the EC50 [4] is reported as 1330 nM.

CCC(=O)CCCCC[C@H](NC(=O)C1CC2(CCN(C)CC2)C1)c1ncc(-c2ccc3nn(C)cc3c2)[nH]1 [Compound 145] gave an EC50 [3] of 641 nM and an EC50 [4] of 746 nM.

In the case of CCC(=O)CCCCC[C@H](NC(=O)[C@H]1CC12CCN(C)CC2)c1ncc(-c2ccc3nc(C4CC4)sc3c2)[nH]1 [Compound 146], the EC50 [3] is reported as 122 nM and the EC50 [4] is reported as 112 nM.

CCC(=O)CCCCC[C@H](NC(=O)C1CC2(C1)CN(C)C2)c1ncc(-c2ccc3nn(C)cc3c2)[nH]1 [Compound 147] was tested, and the EC50 [3] was 3580 nM and the EC50 [4] was 2850 nM.
